Reference: article PMC8447191, “Peptide Amphiphilic-Based Supramolecular Structures with Anti-HIV-1 Activity” (Bioconjugate Chemistry, 2021)
*1 amine or outer side, *2 acyl side, *3 side chain or, on linkers, in order; H or OH if unused. Where a SMILES comes first, the peptide text is derived from it. Side-chain parts run from the residue outwards. The star is where a group is joined. PEG28 = NCCOCCOCCOCCOCCOCCOCCOCCOCCOCCOCCOCCOCCOCCOCCOCCOCCOCCOCCOCCOCCOCCOCCOCCOCCOCCOCCOCCOCCC(=O)O; N(octadecyl)2 = CCCCCCCCCCCCCCCCCCN(CCCCCCCCCCCCCCCCCC)*; Suc = O=C(CCC(=O)[*:2])[*:1]

Experiments:
HIV-1BaL = assay type: cell-based; details: HIV-1BaL, TZM-bl cells; peptide 10-0.00061 μM for 1 h at 37 °C before virus; luciferase after 48 h; sigmoid fit; mean of triplicates
Protocol: HIV-1BaL[52] was provided by the NIH AIDS Research & Reference Reagent Program (http://www.aidsreagent.org/). Viral stock was prepared by passage through activated PBMCs[53] for 11 days.
Luciferase-reporter HeLa cells stably transfected to express CD4 and CCR5; TZM-bl cells[54]−[56] were grown in Dulbecco’s Minimal Essential Medium (DMEM) (Sigma-Aldrich, Inc., St. Louis, MO) containing 10% fetal calf serum (FCS), 2 mM L-glutamine, and antibiotics (100 U of penicillin/mL, 100 μg of streptomycin/mL) at 37 °C in an atmosphere containing 5% CO2.
All inhibition assays in cellular and tissue explants models were performed using a standardized amount of virus culture supernatant normalized for infectivity. TZM-bl cells were incubated with serial dilutions of peptides (from 10 μM to 0.00061 μM) for 1 h at 37 °C, prior to challenge with HIV-1BaL. Luciferase expression (r.l.u. values) was determined after 48 h. Alternatively, tissue explants were incubated with serial dilutions of peptide (from 100 μM to 0.1 μM) for 1 h before virus (10^4 TCID50/mL) was added for 2 h. Explants were then washed four times with PBS to remove unbound virus and drug. Colorectal explants were then transferred onto gelfoam rafts (Welbeck Pharmaceuticals, UK) and cultured for 15 days as described previously[57] […]. Explants were cultured for up to 15 days in the absence of peptide. Approximately 50% of the supernatants were harvested every 2–3 days and explants were re-fed with fresh media. The extent of viral replication in tissue explants was determined by measuring the p24 antigen concentration in supernatants (INNOTEST HIV antigen mAb; Fujirebio Europe, Belgium). The extent of inhibition by each peptide was calculated. The percentage of inhibition was normalized relative to the r.l.u, for TZM-bl cells, or p24, for tissue explants, values obtained for cells or explants cultured in the absence of virus (100% inhibition) and for cells or explants infected with virus in the absence of peptide (0% inhibition). Data are the mean (±SEM) of triplicates. When a dose–response curve was obtained, IC50 and, if possible, IC95 values were calculated from sigmoid curve fits (GraphPad Prism). For all curves, R^2 is >0.7.

MTT cytotoxicity assay = assay type: cell-based; details: human, HeLa-env cells, PAs coassembled with 5% FAM, 40-2.3 μM, absorbance 560 nm
Protocol: The metabolic activity of the cell line, related to the cytotoxic effect of the compounds to be tested, is measured after 24 h using the MTT assay. This assay is based on the metabolic reduction of 3-(4,5-dimethylthiazol-2-yl)-2,5-diphenyl-2H-tetrazolium bromide (MTT), carried out by the mitochondrial enzyme succinate dehydrogenase, in a colored compound of blue color (formazan) that can be monitored by absorbance spectroscopy at 560 nm, allowing determination of the mitochondrial functionality of the treated cells.
The HeLa-env cell line is seeded in 96-well plates with an initial density of 15,000 cells per well in 100 μL of culture medium (Dulbecco’s modified Eagle’s medium, DMEM, with 10% FBS added) and incubated for 24 h at 37 °C and 5% CO2 to allow their adhesion. The cell monolayers are washed with PBS, and then 100 μL of PAs formulations (peptide amphiphiles coassembled with 5% FAM) are added in a concentration range from 40 μM to 2.3 μM. The plates are kept in incubation for further 24 h.
At the end of the incubation time, the cells are incubated for 3 h with 1 mg/mL of MTT, dissolved in culture medium without FBS, to allow the formation of formazan crystals. Subsequently, 100 μL of DMSO are added to wells, stirring the plates for 30 min at room temperature to facilitate the complete dissolution of the crystals. Finally, the absorbance at 560 nm is measured in a microplate reader.
The results are expressed as relative percentage between absorbance of PA formulations against absorbance of its DMSO controls and CC50 and CC25 values are taken from dose–response curves.

[1] = Visual stability and aspect of POPC vesicles mixed with PAs (SAXS samples); assay type: physicochemical; details: POPC 20 mM + 2 mM PA, 0.5% DMSO
Protocol: In Figure 5A,B, we show the spectra corresponding to POPC 20 mM and POPC 20 mM + 2 mM PAs (all of them in the presence of 0.5% DMSO). The band centered at 1.2 nm^–1 and the secondary band at 3.2 nm^–1 were typical of unilamellar vesicles.[35]
The incorporation of PAs had some distinct consequences. The first and more obvious one is the distinction between stable and unstable systems.

With `CCCCCCCCCCCCCCCCCCN(CCCCCCCCCCCCCCCCCC)C(=O)CCC(=O)NCCOCCOCCOCCOCCOCCOCCOCCOCCOCCOCCOCCOCCOCCOCCOCCOCCOCCOCCOCCOCCOCCOCCOCCOCCOCCOCCOCCOCCC(=O)NCCCC[C@H](NC(=O)[C@H](Cc1c[nH]c2ccccc12)NC(=O)[C@H](CC(C)C)NC(=O)[C@H](Cc1ccc(O)cc1)NC(=O)[C@H](CCC(=O)O)NC(=O)[C@H](CC(C)C)NC(=O)[C@@H](NC(=O)[C@@H](N)Cc1c[nH]c2ccccc12)[C@@H](C)CC)C(=O)N[C@H](C(=O)N1CCC[C@H]1C(=O)N[C@@H](Cc1ccccc1)C(=O)N[C@@H](CC(=O)O)C(=O)N[C@@H](Cc1ccccc1)C(=O)N[C@@H](Cc1c[nH]c2ccccc12)C(=O)N[C@@H](CCCNC(=N)N)C(=O)NCC(=O)N[C@H](C(=O)N[C@H](C(N)=O)[C@@H](C)CC)C(C)C)C(C)C` [K-PAdialkyl] (H-WILEYLWK([PEG28-Suc-N(octadecyl)2])VPFDFWRGVI-NH2) the IC50 (HIV-1BaL) was 50 nM, the CC50 at 24 h (MTT cytotoxicity assay) was over 40000 nM and the “stability / aspect of the sample” value [1] was “milky”. The vesicular bilayer thickness was 9 nm.
